Laboratory results taken from patent US4874765A, “1,4-Disubstituted piperazines having dopaminergic activity” (Richter Gedeon Vegyeszeti Gyar, priority 1986, dated 1989).
Where two headings read alike, the source gives them in different places.

Experiments:
striatum dopamine level = assay: Protection against MPTP-induced striatal dopamine decrease in mice; type: in vivo, male CFY mice; details: for inhibition in vivo at 100 µmol/kg: Mus musculus, 0.1 mmole/kg, 1 hour before MPTP 70 mg/kg s.c., striatum DA 72-96 hours after MPTP
Experimental: The dopaminergic activity of the compounds of the invention was determined by in vitro and in vivo animals tests. On the examination of the in vivo activity, the protective capability of the compounds against the neurotoxic effect of 1-methyl-4-phenyl-1,2,3,6-tetrahydropyridine (MPTP) was also studied. […] Davis et al.: Psychiat.
(§1) For these investigations male CFY mice (LATI, Godollo, Hungary) weighing 20-25 g were used. The compounds to be tested were homogenized in 1% Tween 80 solution and administered to the animals in a dose of 0.1 mmole/kg (in the route given in the Table) 1 hour before administering MPTP. MPTP was freshly dissolved in physiological saline solution and subcutaneously given to the mice in a dose of 70 mg/kg. 72 to 96 hours after the administration of MPTP the animals were killed by decapitation, their brain was rapidly removed, cooled in an ice-cold physiological saline solution, the striatum was excised and refrigerated in dry ice.
The tissues (in a refrigerated condition) were weighed and homogenized in 1 ml of 0.4N perchloric acid solution containing 0.5% of Na2 S2 O5, 0.25 % of Na2 EDTA and 100 ng of M-methyldopamine (internal standard for the determination of catecholamines) in an Ultra-Turrax equipment. The homogenate was centrifuged at 4° C. at 20,000 g for 10 minutes, then 0.8 ml of the supernatent was taken out. After adding 20 mg of activated aluminum oxide, the pH value of the solution was adjusted to 8 by adding 0.5M Tris solution and the tubes were shaken for 20 minutes. The aluminium oxide was settled, the supernatent was removed by suction and washed 3 times with 5 ml of distilled water each. The catecholamines adsorbed on the aluminium oxide were eluted with 1 ml of 0.05N perchloric acid. From a part of the eluate, dopamine was determined by using high pressure liquid chromatography by means of electrochemical detection (Labor MIM Oe-320 pump, 4×150 mm Nucleosil 5 C-18 analytical column and 4×20 mm Nucleosil 5 C-18 supplementary column; electrochemical detector fitted with a glassy-carbon working electrode and an Ag/AgCl2 reference electrode; Eltron potentiostat, LKB 2110 2-channel recorder; with an oxidation potential of 600 mV and as mobile phase 0.1M NaH2 PO4, 1 mM Na2 EDTA, 1 mM octanesulfonic acid containing 8.5% of acetonitrile; flow rate 1 ml/minute).
The protection against the dopamine decrease induced by MPTP was calculated as follows: [formula]
(§2) As a referenced drug, trihexyphenidyl hydrochloride (α-cyclohexyl-α-phenyl-1-piperidinepropanol hydrochloride) was used in a dose of 10 mg/kg (<0.1 mmole/kg).

dopaminergic system [1] = details: cited from earlier work
dopaminergic system [2] = details: cited from earlier work; remark: listed apart in the source
[3] = dose higher than 10 mg/kg; mice
Experimental: as §1, §2

[4] = ip, read-out: DA decrease induced by MPTP, % inhibition, i.p. route
[5] = po, read-out: DA decrease induced by MPTP, % inhibition, p.o. route

Row | Structure (SMILES) | inhibition in vivo at 100 µmol/kg (striatum dopamine level; [4]) [%] | inhibition in vivo at 100 µmol/kg (striatum dopamine level; [5]) [%] | further results
1 | CCCCN1CCN(CCOC(c2ccccc2)c2ccc(Cl)c(Cl)c2)CC1 (centres unmarked) [Compound 15] | 98 |  | 
2 | CCCCN1CCN(CCOC(c2ccc(F)cc2)c2ccc(Cl)cc2)CC1 (centres unmarked) [Compound 16, 1-[2-[(4-chlorophenyl)-(4-fluorophenyl)methoxy]-ethyl]-4-butylpiperazine] |  | 86 | 
3 | CCCCCCN1CCN(CCOC(c2ccc(F)cc2)c2ccc(F)cc2)CC1 [Compound 17, 1-[2-[bis(4-fluorophenyl)methoxy]ethyl]-4-hexyl-piperazine] |  | 89 | 
4 | CCCCCC(=O)N1CCN(CCOC(c2ccc(F)cc2)c2ccc(F)cc2)CC1 [Compound 11, 1-[2-[bis(4-fluorophenyl)methoxy]ethyl]-4-(1-oxo-hexyl)piperazine] | 82 |  | 
5 | C=CCN1CCN(CCOC(C)(c2ccc(F)cc2)c2ccc(F)cc2)CC1 [Compound 10, 1-[2-[1-bis(4-fluorophenyl)ethoxy]ethyl]-4-(2-propenyl)piperazine] | 89 |  | 
6 | C=C(C)CN1CCN(CCOC(c2ccc(F)cc2)c2ccc(F)cc2)CC1 [Compound 13, 1-[2-[bis(4-fluorophenyl)methoxy]ethyl]-4-(2-methyl--2-propenyl)-piperazine] |  | 95 | 
7 | C=CCN1CCN(CCOC(c2ccccc2)c2ccc(F)cc2)CC1 (centres unmarked) [Compound 3, 1-[2-[(4-fluorophenyl)-phenylmethoxy]ethyl]-4-(2-propenyl)piperazine] |  | 100 | 
8 | C#CCN1CCN(CCOC(c2ccc(F)cc2)c2ccc(F)cc2)CC1 [Compound 12, 1-[2-[bis(4-fluorophenyl)methoxy]ethyl]-4-(2--propynyl)piperazine] |  | 94 | 
9 | C=CCN1CCN(CCOC(c2ccccc2)c2ccc(Cl)c(Cl)c2)CC1 (centres unmarked) [Compound 7, 1-[2-[(3,4-dichlorophenyl)-phenylmethoxy]ethyl]--4-(2-propenyl)-piperazine] | 100 | 98 | 
10 | CCCN1CCN(CCOC(c2ccc(F)cc2)c2ccc(F)cc2)CC1 [Compound 2] | 100 |  | 
11 | CCCN1CCN(CCOC(c2ccc(F)cc2)c2ccc(Cl)cc2)CC1 (centres unmarked) [Compound 8, 1-[2-[(4-chlorophenyl)-(4-flurophenyl)methoxy]-ethyl]-4-propyl-piperazine] | 95 |  | 
12 | C=CCN1CCN(CCOC(c2ccc(F)cc2)c2ccc(F)cc2)CC1 [Compound 1, 1-[2[bis(4-fluorophenyl)methoxy]ethyl]-4-(2-propenyl)-piperazine] | 98 | 100 | 
13 | C=CCN1CCN(CCOC(c2ccc(F)cc2)c2ccc(Cl)cc2)CC1 (centres unmarked) [Compound 4, 1-[2-[(4-chlorophenyl)-(4-fluorophenyl)methoxy]-ethyl]-4-(2-propenyl)piperazine] | 100 |  | 
14 | CCC(=O)N1CCN(CCOC(c2ccc(F)cc2)c2ccc(F)cc2)CC1 [Compound 14, 1-[2-[bis(4-fluorophenyl)methoxy]ethyl]-4-(1-oxo-propyl)piperazine] |  | 71 | 
15 | C=CCN1CCN(CCOC(c2ccc(Cl)cc2)c2ccc(Cl)cc2)CC1 [Compound 6, 1-[2-[bis(4-chlorophenyl)methoxy]ethyl]-4-(2-propenyl)piperazine] | 100 |  | 
16 | C=CCN1CCN(CCOC(c2ccc(F)cc2)c2ccc(Br)cc2)CC1 (centres unmarked) [Compound 5, 1-[2-[(4-bromophenyl)-(4-fluorophenyl)methoxy]-ethyl]-4-(2-propenyl)piperazine] | 100 |  | 
17 | CN1CC=C(c2ccccc2)CC1.Cl [MPTP, 1-methyl-4-phenyl-1,2,3,6-tetrahydropyridine hydrochloride] |  |  | selective dopaminergic system-damaging effect on mice (dopaminergic system [1]): selective dopaminergic system-damaging effect; degeneration of the dopaminergic system in men and monkeys (dopaminergic system [2]): causes the degeneration of the dopaminergic system
18 | Cl.OC(CCN1CCCCC1)(c1ccccc1)C1CCCCC1 (stereo not drawn) [Trihexyphenidyl.HCl, α-cyclohexyl-α-phenyl-1-piperidinepropanol hydrochloride, reference compound] |  |  | lethality at doses above 10 mg/kg [3]: The animals perished on administration of a higher dose; DA decrease induced by MPTP, % inhibition, i.p. route (reference drug) (striatum dopamine level; i.p., 10 mg/kg (<0.1 mmole/kg), before MPTP 70 mg/kg s.c.): 7%
19 | CCCCN1CCN(CCOC(c2ccc(F)cc2)c2ccc(F)cc2)CC1 [Compound 9, 1-[2-[bis(4-flurophenyl)methoxy]ethyl]-4-butyl-piperazine] | 100 |  | 
